Source: PubChem BioAssay AID298 (DTP/NCI, 2004)
“And” between values parts separate entries of the source, which are not always exact repeats. Equal entries are not always repeated. Records with an inconclusive call do not appear.

Tested on: MX-1 breast xenograft, intrarenal, nude mice, tumor weight
Experiment: NCI In Vivo Anticancer Drug Screen. Data for tumor model Human Mammary Carcinoma MX-1 Xenograft (intrarenal inoculation) in NU/NU BALB/C (nude) mice
Details: endpoint: mean tumor weight change, higher = larger tumour
Procedure, shortened: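 Transplantable tumors established in mice; animals dosed with compound or vehicle; survival or tumor size then recorded. Result reported as treated (T) divided by vehicle control (C).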

[1] = dose: 37.5 mg/kg/injection, schedule: Q04DX003 (ip), vehicle: Klucel (hydroxypropylcellulose) (HPC)
[2] = dose: 75.0 mg/kg/injection, schedule: Q04DX003 (ip), vehicle: Klucel (hydroxypropylcellulose) (HPC)
[3] = dose: 100.0 mg/kg/injection, schedule: Q01DX010 (sc), vehicle: saline with Tween-80
[4] = dose: 200.0 mg/kg/injection, schedule: Q01DX010 (sc), vehicle: saline with Tween-80
[5] = dose: 150.0 mg/kg/injection, schedule: Q04DX003 (ip), vehicle: water
[6] = dose: 75.0 mg/kg/injection, schedule: Q04DX003 (ip), vehicle: saline with Tween-80
[7] = dose: 150.0 mg/kg/injection, schedule: Q04DX003 (ip), vehicle: saline with Tween-80
[8] = dose: 200.0 mg/kg/injection, schedule: Q01DX010 (sc), vehicle: Klucel (hydroxypropylcellulose) (HPC)
[9] = dose: 400.0 mg/kg/injection, schedule: Q01DX010 (sc), vehicle: Klucel (hydroxypropylcellulose) (HPC)

COc1cc2c(c3c1c(=O)c1ccccc1n3C)C=CC(C)(C)O2
T/C [1]: 54 % of control
T/C [2]: 40 % of control
T/C (dose: 150.0 mg/kg/injection, schedule: Q04DX003 (ip), vehicle: Klucel (hydroxypropylcellulose) (HPC)): 21 % of control

ClCC[N+]12CC[N+](CCCl)(CC1)C2
T/C (dose: 75.0 mg/kg/injection, schedule: Q04DX003 (sc), vehicle: water): 34 % of control
T/C [3]: 23 % of control and 27 % of control
T/C (dose: 150.0 mg/kg/injection, schedule: Q04DX003 (sc), vehicle: water): 18 % of control
T/C [4]: 16 % of control and 19 % of control
T/C (dose: 300.0 mg/kg/injection, schedule: Q04DX003 (sc), vehicle: water): 3 % of control

C1CCC2C[N-]CCC2C1.C1CCC2C[N-]CCC2C1.C1CCC2C[N-]CCC2C1.C1CCC2C[N-]CCC2C1.[Cl][Rh][Cl] (centres undefined)
T/C (dose: 72.0 mg/kg/injection, schedule: Q04DX003 (sc), vehicle: saline with Tween-80): 112 % of control
T/C (dose: 144.0 mg/kg/injection, schedule: Q04DX003 (sc), vehicle: saline with Tween-80): 124 % of control
T/C (dose: 576.0 mg/kg/injection, schedule: Q04DX003 (sc), vehicle: saline with Tween-80): 67 % of control

CO[C@H]1C[C@@H]2CC[C@@H](C)[C@@](O)(O2)C(=O)C(=O)N2CCCC[C@H]2C(=O)O[C@H]([C@H](C)C[C@@H]2CC[C@@H](O)[C@H](OC)C2)CC(=O)[C@H](C)C=C(C)[C@@H](O)[C@@H](OC)C(=O)[C@H](C)C[C@H](C)/C=C/C=C/C=C1C
T/C [3]: 30 % of control
T/C [4]: 22 % of control
T/C (dose: 400.0 mg/kg/injection, schedule: Q01DX010 (sc), vehicle: saline with Tween-80): 54 % of control
T/C (dose: 800.0 mg/kg/injection, schedule: Q01DX010 (sc), vehicle: saline with Tween-80): 54 % of control

[Na+]
T/C [5]: 66 % of control
T/C (dose: 600.0 mg/kg/injection, schedule: Q04DX003 (ip), vehicle: water): 84 % of control
T/C (dose: 1200.0 mg/kg/injection, schedule: Q04DX003 (ip), vehicle: water): 97 % of control

COc1cc2c[n+](C)c3c(c2cc1OC)Cc1cc2c(cc1-3)OCO2
T/C [6]: 102 % of control
T/C [7]: 35 % of control

CN(C)/N=N/c1nc[nH]c1C(N)=O
T/C (dose: 50.0 mg/kg/injection, schedule: Q04DX003 (ip), vehicle: Klucel (hydroxypropylcellulose) (HPC)): 74 % of control
T/C [2]: 87 % of control
T/C (dose: 112.0 mg/kg/injection, schedule: Q04DX003 (ip), vehicle: Klucel (hydroxypropylcellulose) (HPC)): 82 % of control
T/C [8]: 70 % of control
T/C [9]: 14 % of control

[N-]=[N+]=[N-]
T/C (dose: 1.5 mg/kg/injection, schedule: Q04DX003 (ip), vehicle: water): 66 % of control
T/C (dose: 6.0 mg/kg/injection, schedule: Q04DX003 (ip), vehicle: water): 66 % of control
T/C (dose: 12.0 mg/kg/injection, schedule: Q04DX003 (ip), vehicle: water): 64 % of control

COC1(OC)C2C=CC1CC2
T/C (dose: 150.0 mg/kg/injection, schedule: Q04DX003 (sc), vehicle: saline with Tween-80): 116 % of control
T/C (dose: 300.0 mg/kg/injection, schedule: Q04DX003 (sc), vehicle: saline with Tween-80): 104 % of control
T/C (dose: 600.0 mg/kg/injection, schedule: Q04DX003 (sc), vehicle: saline with Tween-80): 121 % of control
T/C (dose: 1200.0 mg/kg/injection, schedule: Q04DX003 (sc), vehicle: saline with Tween-80): 111 % of control

CC1=C[P+](c2ccccc2)(c2ccccc2)C=C(c2ccccc2)O1
T/C (dose: 0.75 mg/kg/injection, schedule: Q04DX003 (ip), vehicle: saline): 124 % of control

N#CC(C#N)=C/C=C/c1cccc([N+](=O)[O-])c1
T/C [8]: 176 % of control
T/C [9]: 214 % of control

Cc1ccc(NN=O)nc1
T/C (dose: 9.35 mg/kg/injection, schedule: Q04DX003 (ip), vehicle: water): 11 % of control
T/C (dose: 9.37 mg/kg/injection, schedule: Q04DX003 (ip), vehicle: water): -9 % of control
T/C (dose: 18.7 mg/kg/injection, schedule: Q04DX003 (ip), vehicle: water): 6 % of control
T/C (dose: 18.75 mg/kg/injection, schedule: Q04DX003 (ip), vehicle: water): -21 % of control
T/C (dose: 37.5 mg/kg/injection, schedule: Q04DX003 (ip), vehicle: water): -69 % of control

S=c1sc2ccccc2n1CN1CCOCC1
T/C [6]: 77 % of control and 84 % of control
T/C [7]: 110 % of control and 115 % of control
T/C (dose: 300.0 mg/kg/injection, schedule: Q04DX003 (ip), vehicle: saline with Tween-80): 79 % of control and 90 % of control
T/C (dose: 600.0 mg/kg/injection, schedule: Q04DX003 (ip), vehicle: saline with Tween-80): 67 % of control and 82 % of control

CCCCCCSc1nc(COC(=O)NC)c(COC(=O)NC)n1C
T/C (dose: 33.7 mg/kg/injection, schedule: Q04DX003 (ip), vehicle: saline): 100 % of control
T/C (dose: 135.0 mg/kg/injection, schedule: Q04DX003 (ip), vehicle: saline): 23 % of control

CC(=O)OCN(C)C=O
T/C (dose: 300.0 mg/kg/injection, schedule: Q01DX010 (ip), vehicle: suspension in saline): 105 % of control
T/C (dose: 600.0 mg/kg/injection, schedule: Q01DX010 (ip), vehicle: suspension in saline): 75 % of control
T/C (dose: 600.0 mg/kg/injection, schedule: Q01DX010 (sc), vehicle: saline): 88 % of control
T/C (dose: 1200.0 mg/kg/injection, schedule: Q01DX010 (sc), vehicle: saline): 104 % of control
T/C (dose: 2400.0 mg/kg/injection, schedule: Q01DX010 (sc), vehicle: saline): 78 % of control

CCC(C(=O)O)C(=O)O.[NH2-].[NH2-].[Pt+2]
T/C (dose: 37.5 mg/kg/injection, schedule: Q04DX003 (sc), vehicle: saline): -27 % of control
T/C (dose: 37.5 mg/kg/injection, schedule: Q04DX003 (sc), vehicle: suspension in saline): -100 % of control
T/C (dose: 75.0 mg/kg/injection, schedule: Q04DX003 (sc), vehicle: saline): -100 % of control
T/C (dose: 75.0 mg/kg/injection, schedule: Q04DX003 (sc), vehicle: suspension in saline): -100 % of control
T/C (dose: 150.0 mg/kg/injection, schedule: Q04DX003 (sc), vehicle: saline): -100 % of control
T/C (dose: 150.0 mg/kg/injection, schedule: Q04DX003 (sc), vehicle: suspension in saline): -100 % of control

COC(=O)[C@@]12OC[C@]34[C@H]([C@@H](O)[C@@H]1O)[C@@]1(C)CC(=O)C(OC(=O)CC(=O)OC5=C(C)[C@@H]6C[C@H]7OC(=O)[C@H](OC(=O)/C=C(\C)C(C)C)[C@H]8[C@]9(C(=O)OC)OC[C@]78[C@H]([C@@H](O)[C@@H]9O)[C@@]6(C)CC5=O)=C(C)[C@@H]1C[C@H]3OC(=O)[C@H](OC(=O)/C=C(\C)C(C)C)[C@@H]24
T/C (dose: 3.12 mg/kg/injection, schedule: Q04DX003 (ip), vehicle: saline + Tween-80 + alcohol): 86 % of control
T/C (dose: 6.25 mg/kg/injection, schedule: Q04DX003 (ip), vehicle: saline + Tween-80 + alcohol): 63 % of control

C#CCN(Cc1ccc2nc(N)[nH]c(=O)c2c1)c1ccc(C(=O)NC(CCC(=O)O)C(=O)O)cc1 (centres undefined)
T/C (dose: 75.0 mg/kg/injection, schedule: Q04DX003 (ip), vehicle: water): 111 % of control
T/C [5]: 74 % of control
T/C (dose: 300.0 mg/kg/injection, schedule: Q04DX003 (ip), vehicle: water): 72 % of control

CN=C(NC#N)NCCSCc1nc[nH]c1C
T/C (dose: 600.0 mg/kg/injection, schedule: Q04DX003 (sc), vehicle: Klucel (hydroxypropylcellulose) (HPC)): 108 % of control

S=C1CCCCN1
T/C (dose: 150.0 mg/kg/injection, schedule: Q04DX003 (ip), vehicle: distilled water + Tween-80 + alcohol): 82 % of control
T/C (dose: 300.0 mg/kg/injection, schedule: Q04DX003 (ip), vehicle: distilled water + Tween-80 + alcohol): 72 % of control

CC1[C@@H]2CC=C3[C@H]4CCC5Cc6nc7c(nc6C[C@@]5(C)C4CC(=O)[C@]32CO[C@]12OC(C)(C)CC2O)CC1CC[C@@H]2C3=C[C@H]4O[C@@]5(O[C@@](C)(CO)C[C@@H]5O)C(C)[C@@]4(O)[C@]3(C)[C@@H](O)CC2[C@]1(C)C7 (some centres undefined)
T/C (dose: 12.5 micrograms/kg/injection, schedule: Q04DX003 (ip), vehicle: saline + alcohol): 123 % of control
T/C (dose: 25.0 micrograms/kg/injection, schedule: Q04DX003 (ip), vehicle: saline + alcohol): 78 % of control
T/C (dose: 50.0 micrograms/kg/injection, schedule: Q04DX003 (ip), vehicle: saline + alcohol): 118 % of control
T/C (dose: 100.0 micrograms/kg/injection, schedule: Q04DX003 (ip), vehicle: saline + alcohol): 100 % of control

NC(=O)C1=CC2C3C=CC2(O)C(=O)OC3O1 (centres undefined)
T/C [1]: 54 % of control
T/C [2]: 42 % of control

O=C(O)[C@H](Cc1ccccc1)N1C(=O)c2ccccc2C1=O
T/C (dose: 150.0 mg/kg/injection, schedule: Q04DX003 (ip), vehicle: DMSO): 77 % of control
T/C (dose: 300.0 mg/kg/injection, schedule: Q04DX003 (ip), vehicle: DMSO): 60 % of control
T/C (dose: 600.0 mg/kg/injection, schedule: Q04DX003 (ip), vehicle: DMSO): 33 % of control
